According to publication PMC5693942 (Scientific Reports, 2017):
Where “and” joins values, the source holds several entries; their conditions need not be identical. Equal entries are not always repeated. Entries after “also recorded” stand apart in the source; their conditions may differ.

Experiments:
Daphnia magna = Daphnia magna acute 48 h immobilization assay (Daphtoxkit); assay type: in vivo; conditions: 48 h
Experimental: Six concentration levels (5 concentrations plus control, four replicate beakers for each concentrations, five individual for each beaker) were tested. […] Each experiment was repeated in triplicate.

Tetrahymena thermophila = assay: microbe, parasite or virus in culture; assay type: cell-based
Experimental: The tests were performed in accordance with the protocols provided by the manufacturer. […] The tests were carried out in disposable spectrophotometric cells of 1 cm path-length, to enable the measurement of the optical density (OD) at 440 nm. […] This change in OD over the time period is used to quantify the degree of inhibition and subsequent calculation of the EC50. Each concentration was repeated in duplicate.

[1] = River water simulating microcosms (degradation of FL); conditions: river water, 1 µg L^−1 racemic FL, 16 days
P. promelas = conditions: ref [34]; cited from earlier work
D. magna = conditions: ref [34]; cited from earlier work
[2] = Activated sludge simulating microcosms (degradation of FL, formation of NFL); assay type: physicochemical; conditions: for transformation / removal: 100 µg L^−1 microcosm, 24 h
Experimental: Activated sludge microcosm experiments were conducted in the dark and aerobic conditions. Three microcosm bioreactors were investigated in duplicate. They were filled with 2 L of fresh activated sludge collected from a local wastewater treatment plant. […] Dark conditions were simulated by covering up the flask with foil. Aerobic conditions were obtained using air from BOC air cylinder and a thorough mixing was maintained using magnetic stirrers. The experiment was 24 hours long. […] Collected samples were subsequently frozen until their analysis to prevent degradation of compounds.
The compounds studied are characterized as having low volatility and therefore volatilization was not considered as a potential removal pathway in studied microcosms. Photodegradation was also not considered (not relevant) under tested activated sludge conditions. Therefore the two important degradation mechanisms to consider were biodegradation and sorption to sludge. […] However, in this study, sorption equilibrium was assumed and therefore sorption could be considered negligible. This is because sorption is assumed to be fast when compared to biological degradation.
Several reports utilized pseudo-first-order kinetics for degradation of micropollutants in activated sludge reactors[48]–[50]. […] Pseudo-first order biodegradation rate k1 [L g^−1h^−1]

[3] = 100 µg L^−1, pseudo-first order

| SMILES | Average effect (N immobile, 5 daphnids per replicate) (Daphnia magna; concentration 0.5) | Average effect (N immobile, 5 daphnids per replicate) (Daphnia magna; concentration 1.5) | Average effect (N immobile, 5 daphnids per replicate) (Daphnia magna; concentration 5) | Average effect (N immobile, 5 daphnids per replicate) (Daphnia magna; concentration 16) | Average effect (N immobile, 5 daphnids per replicate) (Daphnia magna; concentration 50) | % I (percentage inhibition) (Tetrahymena thermophila; range test, conc. 0.005) [%] | % I (percentage inhibition) (Tetrahymena thermophila; range test, conc. 0.050) [%] | % I (percentage inhibition) (Tetrahymena thermophila; range test, conc. 0.500) [%] | % I (percentage inhibition) (Tetrahymena thermophila; range test, conc. 5.000) [%] | removal of FL ([1]; dark biotic conditions (DBR)) [%] | removal of FL ([1]; light abiotic conditions (LAR)) [%] | removal of FL ([1]; light biotic reactor (LBR)) [%] | LOEC7d -feeding (P. promelas) [mg/L] | LOEC7d -growth (P. promelas) [mg/L] | LOEC7d -survival (P. promelas) [mg/L] | LOEC21d -grazing (D. magna) | LOEC21d -immobilization (D. magna) [mg/L] | LOEC21d -reproduction (D. magna) [mg/L] | kbiol ([2]; 100 µg L^−1) [LgSS ^−1h^−1] | t1/2biol ([2]; 100 µg L^−1) | also measured |
| --- | --- | --- | --- | --- | --- | --- | --- | --- | --- | --- | --- | --- | --- | --- | --- | --- | --- | --- | --- | --- | --- |
| CNCC[C@H](Oc1ccc(C(F)(F)F)cc1)c1ccccc1 [(S)-FL] | 0.25 | 1 | 3.25 | 5 | 5 | 22.617 | 21.857 | 26.510 | 26.130 | 60.4 | 74.5 | 98.4 | 0.05 | 0.05 | 0.10 | 0.20 mg/L | 0.44 | 0.44 | 0.04 | 19 h and 19.4 h | % I (percentage inhibition) (Tetrahymena thermophila; definitive test, conc. 0.104): -1.720%; % I (percentage inhibition) (Tetrahymena thermophila; definitive test, conc. 0.313): 4.194%; % I (percentage inhibition) (Tetrahymena thermophila; definitive test, conc. 0.535): 0.108%; % I (percentage inhibition) (Tetrahymena thermophila; definitive test, conc. 10.446): 7.204%; % I (percentage inhibition) (Tetrahymena thermophila; definitive test, conc. 20.892): 22.366%; % I (percentage inhibition) (Tetrahymena thermophila; definitive test, conc. 68.945): 73.441%; % I (percentage inhibition) (Tetrahymena thermophila; definitive test, conc. 104.462): 83.118%; % I (percentage inhibition) (Tetrahymena thermophila; range test, conc. 50.000): 57.653%; kbiol ([2]; 10 µg L^−1): 0.04 LgSS ^−1h^−1; t1/2biol ([2]; 10 µg L^−1): 19 h and 18.9 h; k1 ([2]; 10 µg L^−1, pseudo-first order): 0.07 h⁻¹; k1 [2, 3]: 0.07 h⁻¹; transformation / removal [2]: 80% |
| CNCC[C@@H](Oc1ccc(C(F)(F)F)cc1)c1ccccc1 [(R)-FL, (R)-N-Methyl-3-(4-trifluoromethylphenoxy)-3-phenylpropylamine] | 0 | 0.25 | 3.25 | 5 | 5 | -3.105 | 5.433 | -1.164 | 39.974 | 67.9 | 79.2 | 96.7 | 0.17 | 0.17 | 0.17 | none | 0.43 | 0.43 | 0.01 | 68 h and 68.0 h | times more toxic than (S)-FL (Tetrahymena thermophila; Tetrahymena thermophila): 30 ×; % I (percentage inhibition) (Tetrahymena thermophila; definitive test, conc. 0.086): -8.032%; % I (percentage inhibition) (Tetrahymena thermophila; definitive test, conc. 24.098): 91.516%; % I (percentage inhibition) (Tetrahymena thermophila; definitive test, conc. 79.522): 90.724%; degradation ([2]; 10 µg L^−1): lack of degradation; also recorded: No degradation; k1 [2, 3]: 0.02 h⁻¹; transformation / removal [2]: 38% |
